This is an account of results in US11667636B2, “Modulators of Mas-related G-protein receptor X2 and related products and methods” (Escient Pharmaceuticals, Inc., priority 2020, dated 2023).

Structures are written as SMILES. Where only a bound is given, the exact number is not on record here.

The target of this assay is T1, human MRGPRX2 (Homo sapiens, UniProt Q96LB1).
T1 construct: expressed in transfected cells
T1 sequence (Q96LB1 1-330): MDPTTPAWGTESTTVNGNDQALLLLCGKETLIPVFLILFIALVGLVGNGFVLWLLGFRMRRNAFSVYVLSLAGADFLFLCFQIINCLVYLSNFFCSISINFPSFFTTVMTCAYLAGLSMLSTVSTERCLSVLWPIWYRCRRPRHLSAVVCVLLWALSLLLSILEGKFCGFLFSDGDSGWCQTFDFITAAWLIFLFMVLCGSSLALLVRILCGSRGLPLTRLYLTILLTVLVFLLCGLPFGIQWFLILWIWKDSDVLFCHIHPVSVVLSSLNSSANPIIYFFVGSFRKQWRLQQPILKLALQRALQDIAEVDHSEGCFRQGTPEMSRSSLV
As to the kind of experiment: MRGPRX2 Activity: IP-One HTRF antagonist assay in CHO cells stably expressing human MRGPRX2, versus Cortistatin-14. The class given is cell-based. Particulars: versus 0.3 uM Cortistatin-14 agonist, IP-1 HTRF, read-out: MRGPR2 Antagonist Activity. On the procedure:
CHO cells stably transfected to express human MRGPRX2 were maintained in an incubator at 37° C. with 5% CO2 and grown in F12 (HAM) media with 10% fetal bovine serum (FBS), 1% Glutamax, 1% penicillin/streptomycin, 800 μg/mL Geneticin (G418), and 300 μg/mL Hygromycin B. Cells were plated in a 384-well assay plate at 20,000 cells per well in 12 μL of Opti-MEM and kept in an incubator overnight. On the day of the assay, compounds solubilized at 10 mM in DMSO were added as a 10-point curve (30 uM final top concentration with 1:3 serial dilutions) using a Tecan D300E digital dispenser. Agonists were diluted in assay buffer (final concentrations of 5.7 mM Tris-HCl, 43 mM NaCl, 50 mM LiCl, pH=8) and 2 μL of the agonist Cortistatin-14 (CPC Scientific, catalog CORT-002) are added to each well. Final concentrations of agonists were 0.3 μM Cortistatin-14. Final concentrations of DMSO were kept consistent across the plate. Plates were incubated in the dark for 1 hr at 37° C. and then for 1 hr at room temperature. IP-1 standards and HTRF detection reagents were added according to the IP-One-Gq Kit purchased from Cisbio (part number 62IPAPEJ) and incubated in the dark for 1 hr at room temperature. The plate was read on a Molecular Devices SpectraMax iD5 plate reader. The HTRF ratio was calculated from the raw data and graphed using GraphPad Prism to calculate an IC50 value for each compound.
The activity ranges are denoted as follows: “+++++” denotes antagonist activity <50 nM; “++++” denotes antagonist activity between 51 and 100 nM; “+++” denotes activity between 101 and 500 nM; “++” denotes activity between 501 and 1000 nM; and “+” denotes activity >1000 nM
(Time-resolved FRET reads energy transfer from a long-lived donor to a nearby acceptor.)
`COc1ccc(C(=O)N[C@H]2CC[C@@H](Nc3cc(C)cc4nc(C(F)(F)F)cn34)CC2)cc1` [1-23]: the IC50 lay within 101 to 500 nM.

In the case of `O=C(N[C@H]1CC[C@@H](Nc2cccc3nc(C(F)F)cn23)CC1)c1ccnc2cn[nH]c12` [2-253], the IC50 is under 50 nM.

Regarding `O=C(N[C@H]1CC[C@@H](Nc2cccc3nc(C(F)(F)F)cn23)CC1)c1cnc2nccn2c1` [2-125], the IC50 is 101 to 500 nM.

As to `CC(=O)c1cc2c(N[C@H]3CC[C@@H](NC(=O)c4ccc(F)cc4)CC3)cccc2s1` [1-5], the IC50 is 101 to 500 nM.

For the molecule `O=C(N[C@H]1CC[C@@H](Nc2cccc3nc(C(F)(F)F)cn23)CC1)c1cc2cc(F)cnc2[nH]1` [2-120], the IC50 is under 50 nM.

For the molecule `O=C(N[C@H]1CC[C@@H](Nc2cccc3nc(C(F)(F)F)cn23)CC1)c1cncc2cn[nH]c12` [2-241], the IC50 lay within 101 to 500 nM.

On to `O=C(N[C@H]1CC[C@@H](Nc2cccc3nc(C(F)(F)F)cn23)CC1)c1noc2ccccc12` [2-290], for which the IC50 is 101 to 500 nM.

`CN(C)c1ccc(C(=O)N[C@H]2CC[C@@H](Nc3cccc4nc(C(F)(F)F)cn34)CC2)cc1` [2-158]: the IC50 was under 50 nM.

On to `O=C(N[C@H]1CC[C@@H](Nc2cccc3nc(C(F)(F)F)cn23)CC1)c1ccn2cncc2c1` [2-163], for which the IC50 is under 50 nM.

Turning to `O=C(N[C@H]1CC[C@@H](Nc2cccc3nc(C(F)(F)F)cn23)CC1)c1ccc(N2CCOCC2)cc1` [2-8], the IC50 is under 50 nM.

Take `Cn1cc(C(=O)N[C@H]2CC[C@@H](Nc3cccc4nc(C(F)(F)F)cn34)CC2)c(C2CC2)n1` [2-191]: the IC50 was in the range of 51 to 100 nM.

On to `CN(C)c1ccc(C(=O)N[C@H]2CC[C@@H](Nc3cccc4nc(C(F)(F)F)cn34)CC2)c(F)c1` [2-159], for which the IC50 is 51 to 100 nM.

On to `O=C(N[C@H]1CC[C@@H](Nc2cccc3sc(C(F)(F)F)cc23)CC1)c1cc2ccccn2n1` [2-1], for which the IC50 lay within 51 to 100 nM.

Consider `O=C(N[C@H]1CC[C@@H](Nc2cccc3nc(C(F)(F)F)cn23)CC1)c1c[nH]c2ccccc12` [2-201], for which the IC50 was under 50 nM.

On to `CCCn1cc(C(=O)N[C@H]2CC[C@@H](Nc3cccc4nc(C(F)F)cn34)CC2)cn1` [2-255], for which the IC50 fell in the range of 101 to 500 nM.

With `O=C(N[C@H]1CC[C@@H](Nc2cccc3nc(C(F)(F)F)cn23)CC1)c1cn(CC(F)F)nc1Cl` [Example 11, 3-chloro-1-(2,2-difluoroethyl)-N-((1 s,4s)-4-((2-(trifluoromethyl)imidazo[1,2-a]pyridin-5-yl)amino)cyclohexyl)-1H-pyrazole-4-carboxamide], the IC50 was under 50 nM.

As for `O=C(N[C@H]1CC[C@@H](Nc2cccc3nc(C(F)F)cn23)CC1)c1ccc(F)nc1` [2-254], the IC50 fell in the range of 101 to 500 nM.

Consider `CCOCc1cc2c(N[C@H]3CCC[C@@H](NC(=O)c4ccc(OC)cc4)C3)cccc2s1` [1-3], for which the IC50 was over 1000 nM.

Turning to `CN(C)c1ccc(C(=O)N[C@H]2CC[C@@H](Nc3cccc4nc(C#N)cn34)CC2)cc1` [2-258], the IC50 was under 50 nM.

For the molecule `Cn1cc(C(=O)N[C@H]2CC[C@@H](Nc3cccc4nc(C(F)(F)F)cn34)CC2)nn1` [2-233], the IC50 fell in the range of 101 to 500 nM.

On to `Nc1nn(CC(F)F)cc1C(=O)N[C@H]1CC[C@@H](Nc2cccc3nc(C(F)(F)F)cn23)CC1` [Example 6, 3-amino-1-(2,2-difluoroethyl)-N-[4-[[2-(trifluoromethyl)imidazo[1,2-a]pyridin-5 yl]amino]cyclohexyl]pyrazole-4-carboxamide], for which the IC50 was under 50 nM.

Take `CC(C)(O)Cn1cc(C(=O)N[C@H]2CC[C@@H](Nc3cccc4nc(C(F)F)cn34)CC2)c(Cl)n1` [2-283]: the IC50 was 101 to 500 nM.

On to `Cc1n[nH]c2c(C(=O)N[C@H]3CC[C@@H](Nc4cccc5nc(C(F)(F)F)cn45)CC3)ccnc12` [2-247], for which the IC50 lay in the range of 101 to 500 nM.

Consider `COc1ccc(C(=O)N[C@@H]2CCC[C@H](Nc3cc(F)cc4nc(C(F)(F)F)cn34)C2)cc1` [1-31], for which the IC50 lay in the range of 51 to 100 nM.
